Reference: patent US20260216180A1, “QUINOLINE DERIVATIVE COMPOUNDS OR PHARMACEUTICALLY ACCEPTABLE SALT THEREOF, PREPARATION METHOD THEREFOR AND USE THEREOF” (JIANGSU CAREPHAR PHARMACEUTICAL CO.,LTD., priority 2023, published 2026)

Test system: miR-124
Test: Regulation of miR-124 expression in a PBMC in vitro model (qPCR)
Type: cell-based
Conditions: 5 μM test compound, 24 h, human PBMC stimulated with PHA-L and IL-2; miR-191 internal reference; read-out: Relative expression of miR-124, fold change compared with DMSO-treated cells
Procedure: Pharmacological Activity Test: Regulation of miR-124 Expression by the Quinoline Derivatives in a PBMC In Vitro Model
• a. human PBMC cells • b. PHA-L • c. IL-2 • d. mirVana™ miRNA Extraction kit • e. TaqMan Advanced miRNA cDNA Synthesis Kit • f. TaqMan Fast Gene Expression Master Mix • g. TaqMan Advanced miRNA Assay (mir191) • h. TaqMan Advanced miRNA Assay (mir124)
Human PBMC cells were resuscitated. The cell suspension was transferred to a 75 cm^2 culture flask containing 13 mL of culture medium. The cells were cultured overnight in a 37° C., 5% CO2 incubator. The cell suspension was then collected in a conical flask, centrifuged at 1200 rpm for 5 minutes, and the supernatant was discarded. The cells were resuspended in 1 mL of fresh culture medium, and then the cell clumps were gently blown apart and inoculated into a 6-well plate at a density of 4*10^6 cells/mL. 5 μg/mL PHA-L and 10 ng/mL IL-2 were added to each well. The cells were incubated in the incubator for 48 hours. 5 μM of the test compound was added to each well of a 6-well plate, and 0.1% DMSO was added to the blank control wells, and the plate was incubated at 37° C. for 24 h. Cells were collected, Total RNA was isolated and extracted according to the procedure of the mirVana™ miRNA Extraction Kit, and cDNA was prepared according to the procedure of the TaqMan Advanced miRNA cDNA Synthesis Kit. MiR-191 was used as the internal reference gene for qPCR test.
That is, RNA sample→poly (A) tailing reaction→adapter reaction→reverse transcription (RT) reaction→miR-amplification reaction→qPCR test.
The qPCR procedure includes: 50° C. 2 min; 95° C. 20 s; 95° C. 1 s, a 60° C. 20 s, 40 cycles.
The relative gene expression was calculated using the following formula: ΔCt=Ct (miR-124)−Ct (miR-191)
Relative miRNA expression=2^−ΔCt.

Fc1cc(Cl)c2nc(Nc3ccc(C4(C(F)(F)F)CC4)cc3)ccc2c1 [Compound 18, 8-chloro-6-fluoro-N-(4-(1-(trifluoromethyl)cyclopropyl)phenyl)quinolin-2-amine]
fold induction at 5 µM: 125
